Experimental data: patent US9169259B2, “Imidazopyridazine compounds” (Hoffmann-La Roche Inc., priority 2011, dated 2015)
Where a name gives a salt, the structure may show the parent alone.

What follows are compounds tested against recombinant human SYK360-635 (Homo sapiens (Human), UniProt P43405) (assay: SYK kinase assay (33P ATP filtration, IC50 of SYK inhibition)). Details: truncated SYK aa 360-635 0.5 nM, ATP 20 μM, peptide 5 μM, 30° C. 15 min; read-out: ENZYME_FILTRATION_IC50.
Type: biochemical
Procedure: Determination of IC50 of Spleen Tyrosine Kinase (SYK) Inhibition:
SYK kinase assay is a standard kinase assay adapted to a 96 well plate format. This assay is performed in 96-well format for IC50 determination with […] which represented 10 half log dilutions and a 40 μL reaction volume. The assay measures the incorporation of radiolabeled ^33P γATP into an N-terminally biotinylated peptide substrate, derived from naturally occurring phosphoacceptor consensus sequence (Biotin-11aa DY*E). Phosphorylated products were detected upon termination of reactions with EDTA and the addition of Streptavidin coated beads.
Assay plates: 96-well MultiScreen 0.65 um filter plates (Millipore Cat. No.: MADVNOB10)
final concentration: 50 mM HEPES pH7.5
BSA: Bovine Serum Albumin Fraction V, fatty acid free (Roche Diagnostics GmbH, Cat. No. 9100221) diluted to a final concentration of 0.1%
Assay Dilution Buffer (ADB): 50 mM HEPES, 0.1 mM EGTA, 0.1 mM Na Vanadate, 0.1 mM β-glycerophosphate, 10 mM MgCl2, 1 mM DTT, 0.1% BSA, pH 7.5
Bead wash buffer: 10 g/L PBS (Phosphate buffered saline) with 2M NaCl+1% phosphoric acid.
DMSO and the mixture was incubated for 10 min at RT.
The kinase reaction was initiated by the addition of 10 μL 4× substrate cocktail containing the DYE peptide substrate [0 or 5 μM], ATP [20 μM] and ^33PγATP [2 μCi/r×n]. After incubation at 30° C. for 15 min, the reaction was terminated by the transfer of 25 μL of the reaction sample to a 96 well 0.65 μm Millipore MADVNOB membrane/plate containing 200 μL 5 mM EDTA and 20% Streptavidine coated beads in PBS.
After the last wash membrane/plates were transferred to an adaptor plate, heat dried for 15 min at 60° C., and 50 μL scintillation cocktail was added to each well and 4 h later the amount of radioactivity was counted in a top counter.

SMILES	IC50 [nM]
COc1ccc(Nc2cc(-c3cccc(C(=O)O)c3)nn3ccnc23)nc1OC [Example I-95, 3-[8-(5,6-Dimethoxy-pyridin-2-ylamino)-imidazo[1,2-b]pyridazin-6-yl]-benzoic acid]	949
COc1ccc(Nc2cc(N3CCC(C(=O)Nc4ccc(C(=O)O)cc4)C3)nn3ccnc23)nc1OC (stereo not shown) [Example I-75, 4-({1-[8-(5,6-Dimethoxy-pyridin-2-ylamino)-imidazo[1,2-b]pyridazin-6-yl]-pyrrolidine-3-carbonyl}-amino)-benzoic acid]	461
COc1ccc(Nc2cc(-c3ccc(C(=O)O)cc3)nn3ccnc23)nc1OC [Example I-26, 4-[8-(5,6-Dimethoxy-pyridin-2-ylamino)-imidazo[1,2-b]pyridazin-6-yl]-benzoic acid]	265
CC1(C)CCN(c2cccc(Nc3cc(-c4cccc(C(=O)O)c4)nn4ccnc34)n2)C1 [Example I-59, 3-{8-[6-(3,3-Dimethyl-pyrrolidin-1-yl)-pyridin-2-ylamino]-imidazo[1,2-b]pyridazin-6-yl}-benzoic acid]	599
COc1ccc(Nc2cc(-c3ccc(C(=O)NCCc4cc[nH]c(=O)c4)cc3)nn3ccnc23)nc1OC [Example I-28, 4-[8-(5,6-Dimethoxy-pyridin-2-ylamino)-imidazo[1,2-b]pyridazin-6-yl]-N-[2-(2-oxo-1,2-dihydro-pyridin-4-yl)-ethyl]-benzamide]	187
COC(=O)c1cccc(-c2cc(Nc3cccc(N4CCCC4C)n3)c3nccn3n2)c1 (stereo not shown) [Example I-8, 3-{8-[6-(2-Methyl-pyrrolidin-1-yl)-pyridin-2-ylamino]-imidazo[1,2-b]pyridazin-6-yl}-benzoic acid methyl ester]	478
CCc1ccc(Nc2cc(-c3ccccc3)nn3ccnc23)nc1 [Example I-2, (5-Ethyl-pyridin-2-yl)-(6-phenyl-imidazo[1,2-b]pyridazin-8-yl)-amine]	186
OCC1CCCN1c1cccc(Nc2cc(-c3ccccc3)nn3ccnc23)n1 (stereo not shown) [Example I-31, {1-[6-(6-Phenyl-imidazo[1,2-b]pyridazin-8-ylamino)-pyridin-2-yl]-pyrrolidin-2-yl}-methanol hydrochloride]	270
COc1ccc(Nc2cc(-c3cccc(C(=O)Nc4ccc5c(c4)CNC5=O)c3)nn3ccnc23)nc1OC [Example I-56, 3-[8-(5,6-Dimethoxy-pyridin-2-ylamino)-imidazo[1,2-b]pyridazin-6-yl]-N-(1-oxo-2,3-dihydro-1H-isoindol-5-yl)-benzamide]	593
CC1CCCN1c1cccc(Nc2cc(-c3cccc(C(=O)NCCN(C)C)c3)nn3ccnc23)n1 (stereo not shown) [Example I-46, N-(2-Dimethylamino-ethyl)-3-{8-[6-(2-methyl-pyrrolidin-1-yl)-pyridin-2-ylamino]-imidazo[1,2-b]pyridazin-6-yl}-benzamide]	141
CC1(C)CCN(c2cccc(Nc3cc(-c4cccc(C(=O)O)c4)nn4ccnc34)n2)CC1 [Example I-61, 3-[8-(4,4-Dimethyl-3,4,5,6-tetrahydro-2H-[1,2′]bipyridinyl-6′-ylamino)-imidazo[1,2-b]pyridazin-6-yl]-benzoic acid]	1380
CC1CCCN1c1cccc(Nc2cc(-c3cccc(C(=O)N4CCOCC4)c3)nn3ccnc23)n1 (stereo not shown) [Example I-42, (3-{8-[6-(2-Methyl-pyrrolidin-1-yl)-pyridin-2-ylamino]-imidazo[1,2-b]pyridazin-6-yl}-phenyl)-morpholin-4-yl-methanone]	219
CC1CCCN1c1cccc(Nc2cc(-c3ccc(C(C)(C)C)cc3)nn3ccnc23)n1 (stereo not shown) [Example I-85, [6-(4-tert-Butyl-phenyl)-imidazo[1,2-b]pyridazin-8-yl]-[6-(2-methyl-pyrrolidin-1-yl)-pyridin-2-yl]-amine]	610
CC1CCCN1c1cccc(Nc2cc(-c3ccc(F)cc3)nn3ccnc23)n1 (stereo not shown) [Example I-79, [6-(4-Fluoro-phenyl)-imidazo[1,2-b]pyridazin-8-yl]-[6-(2-methyl-pyrrolidin-1-yl)-pyridin-2-yl]-amine]	488
CCC1CCCN1c1cccc(Nc2cc(-c3ccccc3)nn3ccnc23)n1 (stereo not shown) [Example I-30, [6-(2-Ethyl-pyrrolidin-1-yl)-pyridin-2-yl]-(6-phenyl-imidazo[1,2-b]pyridazin-8-yl)-amine hydrochloride]	1960
O=C(O)c1cccc(-c2cc(Nc3cccc(N4CC5CC5C4)n3)c3nccn3n2)c1 (stereo not shown) [Example I-23, 3-{8-[6-(3-Aza-bicyclo[3.1.0]hex-3-yl)-pyridin-2-ylamino]-imidazo[1,2-b]pyridazin-6-yl}-benzoic acid]	442
O=C(O)c1cccc(-c2cc(Nc3cccc(N4CCCC4)n3)c3nccn3n2)c1 [Example I-22, 3-[8-(6-Pyrrolidin-1-yl-pyridin-2-ylamino)-imidazo[1,2-b]pyridazin-6-yl]-benzoic acid hydrochloride]	434
CC1CCC(C)N1c1cccc(Nc2cc(-c3cccc(C(=O)O)c3)nn3ccnc23)n1 (stereo not shown) [Example I-60, 3-{8-[6-(2,5-Dimethyl-pyrrolidin-1-yl)-pyridin-2-ylamino]-imidazo[1,2-b]pyridazin-6-yl}-benzoic acid]	231
COCC1CCCN1c1cccc(Nc2cc(-c3cccc(C(=O)O)c3)nn3ccnc23)n1 (stereo not shown) [Example I-36, 3-{8-[6-(2-Methoxymethyl-pyrrolidin-1-yl)-pyridin-2-ylamino]-imidazo[1,2-b]pyridazin-6-yl}-benzoic acid]	345
CC(C)(C)C1CCN(c2cccc(Nc3cc(-c4cccc(C(N)=O)c4)nn4ccnc34)n2)C1 (stereo not shown) [Example I-67, 3-{8-[6-(3-tert-Butyl-pyrrolidin-1-yl)-pyridin-2-ylamino]-imidazo[1,2-b]pyridazin-6-yl}-benzamide]	280

Stronger by IC50, values ahead:

IC50 [nM]	SMILES
88.5	CC1CCN(c2cccc(Nc3cc(-c4ccccc4)nn4ccnc34)n2)C1 (stereo not shown) [Example I-25, [6-(3-Methyl-pyrrolidin-1-yl)-pyridin-2-yl]-(6-phenyl-imidazo[1,2-b]pyridazin-8-yl)-amine]
75	CC1CCCN1c1cccc(Nc2cc(-c3ccc4cn[nH]c4c3)nn3ccnc23)n1 (stereo not shown) [Example I-19, [6-(1H-Indazol-6-yl)-imidazo[1,2-b]pyridazin-8-yl]-[6-(2-methyl-pyrrolidin-1-yl)-pyridin-2-yl]-amine]
65.2	CC1CCCN1c1cccc(Nc2cc(-c3cccnc3)nn3ccnc23)n1 (stereo not shown) [Example I-78, [6-(2-Methyl-pyrrolidin-1-yl)-pyridin-2-yl]-(6-pyridin-3-yl-imidazo[1,2-b]pyridazin-8-yl)-amine]
63.9	CC1CCCN1c1cccc(Nc2cc(-c3ccc(O)cc3)nn3ccnc23)n1 (stereo not shown) [Example I-77, 4-{8-[6-(2-Methyl-pyrrolidin-1-yl)-pyridin-2-ylamino]-imidazo[1,2-b]pyridazin-6-yl}-phenol]
60.8	CC1CCCN1c1cccc(Nc2cc(-c3cccc(CN4CCCC4)c3)nn3ccnc23)n1 (stereo not shown) [Example I-70, [6-(2-Methyl-pyrrolidin-1-yl)-pyridin-2-yl]-[6-(3-pyrrolidin-1-ylmethyl-phenyl)-imidazo[1,2-b]pyridazin-8-yl]-amine]
59.9	COc1cncc(-c2cc(Nc3cccc(N4CCCC4C)n3)c3nccn3n2)c1 (stereo not shown) [Example I-82, [6-(5-Methoxy-pyridin-3-yl)-imidazo[1,2-b]pyridazin-8-yl]-[6-(2-methyl-pyrrolidin-1-yl)-pyridin-2-yl]-amine]
56.6	CC(=O)N1CCc2ccc(-c3cc(Nc4cccc(N5CCCC5C)n4)c4nccn4n3)cc2C1 (stereo not shown) [Example I-64, 1-(7-{8-[6-(2-Methyl-pyrrolidin-1-yl)-pyridin-2-ylamino]-imidazo[1,2-b]pyridazin-6-yl}-3,4-dihydro-1H-isoquinolin-2-yl)-ethanone]
47.6	COc1ccc(Nc2cc(-c3ccccc3)nn3ccnc23)nc1OC [Example I-44, (5,6-Dimethoxy-pyridin-2-yl)-(6-phenyl-imidazo[1,2-b]pyridazin-8-yl)-amine]
42.1	COc1ccc(Nc2cc(N3CCC(NC(=O)c4ccc(C(=O)O)cc4)C3)nn3ccnc23)nc1OC (stereo not shown) [Example I-76, N-{1-[8-(5,6-Dimethoxy-pyridin-2-ylamino)-imidazo[1,2-b]pyridazin-6-yl]-pyrrolidin-3-yl}-terephthalamic acid]
36.1	C[C@H]1CCCN1c1cccc(Nc2cc(-c3ccc4ncsc4c3)nn3ccnc23)n1 [Example I-52, (6-Benzothiazol-6-yl-imidazo[1,2-b]pyridazin-8-yl)-[6-((S)-2-methyl-pyrrolidin-1-yl)-pyridin-2-yl]-amine]
1.65	CC1CCCN1c1cccc(Nc2cc(-c3cccc(C(=O)Nc4ccc(C(=O)O)cc4)c3)nn3ccnc23)n1 (stereo not shown) [Example I-10, 4-(3-{8-[6-(2-Methyl-pyrrolidin-1-yl)-pyridin-2-ylamino]-imidazo[1,2-b]pyridazin-6-yl}-benzoylamino)-benzoic acid]
